One test relates to mdx mice. Description: Transplantation of MuSCs from myriocin treated donors into cardiotoxin-injured mdx recipients. It is filed as in vivo, mouse. An excerpt: (§1) Decline in tissue regenerative potential is a major hallmark of mammalian aging, including skeletal muscle. It was next asked the question whether myriocin treatment induces functional improvement of MuSCs, boosting their regenerative capacity. MuSCs from aged mice treated or untreated with myriocin for 5 months were isolated, and transplanted into tibialis anterior (TA) muscles of recipient mice. The recipient mice were either aged (20-month-old) C57Bl/6JRj or aged (1-year-old) mdx mice, a mouse model of Duchenne muscular dystrophy lacking dystrophin protein (FIG. 4a). Before MuSC transplantation, injury was induced by cardiotoxin injection to TA of all recipient mice. […] At both 7 and 14 days after transplantation the inflammatory area was also smaller (FIG. 12a-b) in mdx recipients of MuSCs isolated from myriocin treated mice. […] Thus, transplantation of MuSCs derived from myriocin treated donors induce major morphological improvements following cardiotoxin-induced muscle injury.
Cardiotoxin-induced muscle damage and MuSC transplantation. […]
Histology. […] Microscopy images of fluorescence from muscle fibers were analyzed using the ImageJ software. Centralized nuclei percent, minimal Feret diameter and cross-sectional area in TA muscles were determined using the ImageJ software quantification of laminin, dystrophin, and DAPI-stained muscle images from VS120-S6-W slides scanner (Olympus). […] The mean cross-sectional area of muscle fibers was calculated as the average cross-sectional area of 2,000 fibers per from sample. 7-8 mouse samples per condition were used for histological quantification of donor mice. The eMyHC quantification is expressed as proportion of eMyHC positive signal over total TA cross sectional area. Following MuSC injection in CTX injected recipient mice, inflammation representing the regenerative stage of muscle was quantified by ImageJ software as proportion of inflammatory area over total area of the TA muscle cross section. The PAX7-positive cells were quantified as the average number of cells per field of more than 30 randomly chosen fields from a mouse TA. […]

The next test has as its system aged C57Bl/6JRj mice. Description: Transplantation of MuSCs from myriocin treated donors into cardiotoxin-injured aged C57Bl/6JRj recipients. It is filed as in vivo, mouse.
Excerpt: as §1
To test whether the functional improvement of MuSCs upon myriocin treatment also translates into better muscle function of recipient mice, tests of muscle function were performed before and 7 days after MuSC transplantation.
Endurance running test. The exercise regimen on a treadmill commenced at a speed of 9 cm/s. As the mice were aged, an inclination of 0 degrees was used. Mice were considered to be exhausted, and removed from the treadmill if they received 7 or more shocks (0.2 mA) per minute for two consecutive minutes. The distance traveled and time before exhaustion were registered as maximal running distance and time.
Grip strength. Muscle strength was assessed by grip strength test. The grip strength of each mouse was measured on a pulldown grid assembly connected to a grip strength meter (Columbus Instruments). The mouse was drawn along a straight line parallel to the grip, providing peak force. The experiment was repeated three times, and the highest value was included in the analysis.
Rotarod test. The rotarod test measures muscle strength, coordination, and endurance. Mice were left undisturbed in the room for 30 min. The speed of the rotating cylinder (rotarod) increased from 0 to 40 rpm in 5 min. Each mouse had 3 trials per day for 3 consecutive days. The latency and speed the mouse reached it passive rotation or fall from the rotor was recorded, and the latency and speed of the best trial of the second day is presented.
Cardiotoxin-induced muscle damage and MuSC transplantation. MuSCs were transplanted from donor mice to recipient mice. The donor mice were aged male C57Bl/6JRj mice, whose treatment with myriocin was started at the age of 18 months. The recipient mice were either aged (18-month-old) male C57Bl/6JRj mice or 1-year-old male mdx mice. 50 μL of 20 μM Naje Mossambica mossambica cardiotoxin (Sigma) was injected intramuscularly into the tibialis anterior (TA) muscle of recipient mice before transplantation. 24 h after CTX injection, equal number (1500) of freshly isolated MuSCs from donor mice were injected intramuscularly into the TA muscle. Recipient mice were sacrificed at 7 and 14 days after transplantation.
Histology. TA muscles were harvested from anesthetized mice, and immediately embedded in Thermo Scientific™ Shandon™ Cryomatrix™ and frozen in isopentane, cooled in liquid nitrogen, for 1 min before being transferred to dry ice and stored at −80° C. 8 μm cryosections were incubated in 4% PFA for 15 min, washed three times for 10 min with PBS, incubated for antigen retrieval in pH 6.0 citrate buffer for 10 min at 95° C. (for PAX7 antibody), counterstained with DAPI, laminin (1:200, Sigma), PAX7 (1:200, DSHB, University of Iowa), dystrophin (1:100, Spring Bioscience) or eMyHC (1:50, DSHB, University of Iowa), coupled with Alexa-488 or Alexa-568 fluorochromes (Life Technology) and mounted with Dako Mounting Medium. Microscopy images of fluorescence from muscle fibers were analyzed using the ImageJ software. […]

Test [1] relates to human primary myoblasts from IBM donors. Description: Proteostat staining of IBM patient myoblasts. In kind it is cell-based. Particulars: 30 μM MYR for 24 h. Here is the method: (§2) FIG. 16. Quantitative Proteostat signal normalized over the number of cells in human primary myoblasts from IBM donors (above) and APPSwe-expressing C2C12 myoblasts (below) decreases after treatment with 30 μM MYR for 24 h. Values are expressed as mean±s.e.m. ***P:0.001; ****P:0.0001. Differences between two groups were assessed using Student's two-tailed t-tests (error bars: 95% confidence intervals).
Cell lines from IBM patients featuring impaired proteostasis were obtained. This was validated using Proteostat staining which targets general disruption in proteostasis.

For test [2], the system named is APPSwe-expressing C2C12 myoblasts. Description: Proteostat staining of APPSwe-expressing C2C12 myoblasts. It is filed as cell-based, mouse. As to conditions: 30 μM MYR for 24 h. Here is the method:
as §2

[3] abbreviates: aged C57Bl/6JRj recipients of MuSCs from myriocin treated donors, 7 days.
Setting [4] is: aged recipients of MuSCs from myriocin treated mice, 7 days after transplantation, change relative to baseline.

For the molecule `CCCCCCC(=O)CCCCCCC=CCC(O)C(O)C(N)(CO)C(=O)O` (stereo not drawn) [myriocin, 2-Amino-3,4-dihydroxy-2-(hydroxymethyl)-14-oxoicos-6-enoic acid], the “inflammatory area of TA” value with mdx mice (7 and 14 days after transplantation) is “smaller”. In addition, in the test with mdx mice (7 days after transplantation), the “count of PAX7+ cells in TA” value is on record as “elevated count” and the “myogenesis of dystrophin-positive fibers” value was “stimulated myogenesis”. In addition, the “inflammatory area of TA” value in the test with aged C57Bl/6JRj mice (aged C57Bl/6JRj recipients of MuSCs from myriocin treated donors, 7 and 14 days after injury) is on record as “smaller”. In the test with aged C57Bl/6JRj mice (setting [3]), the “count of PAX7+ cells per field and per section” value is on record as “increased count”; the “embryonic myosin heavy chain (eMyHC) positive area” value was “higher”. For the same molecule, in the test with aged C57Bl/6JRj mice (setting [4]), the “exercise capacity (maximal running distance)” value is “improved”, the grip strength entry is listed as “improved” and the “latency in rotarod test” value is “increased latency”. Besides, the “Proteostat signal normalized over the number of cells (protein aggregates)” value in test [1] is “clearing protein aggregates”. Further, the “Proteostat signal normalized over the number of cells (protein aggregates)” value in test [1] (listed as MYR) was “decreases”. Also, in test [2], the “Proteostat signal normalized over the number of cells” value is listed as “decreases”.

(Values after patent US20220288004A1, “TREATMENT AND PREVENTION OF AGING RELATED-DISEASE AND/OR AGING BY THE INHIBITION OF SPHINGOLIPIDS” (ECOLE POLYTECHNIQUE FEDERALE DE LAUSANNE (EPFL), priority 2019, published 2022).)
